Patent US11572341B2, “Biguanide compound and use thereof” (ImmunoMet Therapeutics Inc., priority 2014, dated 2023)
Where a name gives a salt, the structure may show the parent alone. Read-outs that look alike come from different tables or passages of the source.

Key:
HCT116 cells = assay: Inhibitory effect against cancer cell proliferation (MTT); type: cell-based, human; conditions: Homo sapiens, read-out: IC50 (uM) @ HCT116
Experimental: The formazane crystals thus formed were dissolved using dimethyl sulfoxide (DMSO) and absorbance of the solution was measured at 560 nm. After culturing for 48 hours, […] synthesized in Examples was indicated as cell viability (%) according to each treated concentration.

AMPKa [pT172] = assay: AMPKa activation [pT172] in MCF7 cell; type: cell-based

Structure (SMILES) | IC50 (HCT116 cells; HCT-116, HCT116, MTT, 48 hours) | AMPKa activation [pT172] (Unit/ml) @ MCF7 cell (AMPKa [pT172]; 5 uM) | AMPKa activation [pT172] (Unit/ml) @ MCF7 cell (AMPKa [pT172]; 10 uM) | AMPKa activation [pT172] (Unit/ml) @ MCF7 cell (AMPKa [pT172]; 50 uM) | IC50 (HCT116 cells; HCT-116, 48 h)
CN1CCN(C(=N)NC(=N)Nc2cccc(OC(F)(F)F)c2)CC1.Cl [Example 22, N1-(4-methyl)piperazin-N5-(3-trifluoromethoxy)phenyl Biguanide Hydrochloride] | 35.2 µM | 3.8 Unit/ml | 10.1 Unit/ml | 22.3 Unit/ml | –
CCOC1CCN(C(=N)NC(=N)Nc2ccc(C(F)(F)F)cc2)CC1.Cl [Example 23, N1-(4-ethoxy)piperidin-N5-(4-trifluoromethyl)phenyl Biguanide Hydrochloride] | 12.7 µM | 7.7 Unit/ml | 6.6 Unit/ml | cell death | –
CC1CCCN(C(=N)NC(=N)NC2CCCC2)C1.Cl (stereo not shown) [Example 44, N1-(3-methyl)piperidin-N5-cyclopentyl Biguanide Hydrochloride] | > 100 µM | 4.5 Unit/ml | 5.2 Unit/ml | 14.8 Unit/ml | –
CN1CCN(C(=N)NC(=N)Nc2cc(F)c(F)c(F)c2)CC1.Cl [Example 40, N1-(4-methyl)piperazin-N5-(3,4,5-trifluoro)phenyl Biguanide Hydrochloride] | > 100 µM | 7.0 Unit/ml | 5.1 Unit/ml | 7.2 Unit/ml | –
CN1CCN(C(=N)NC(=N)Nc2cccc(F)c2)CC1.Cl [Example 28, N1-(4-methyl)piperazin-N5-(3-fluoro)phenyl Biguanide Hydrochloride] | > 100 µM | 7.7 Unit/ml | 9.2 Unit/ml | 7.9 Unit/ml | –
CC1CCN(C(=N)NC(=N)Nc2ccc(C(F)(F)F)cc2)CC1.Cl [Example 53, N1-(4-methyl)piperidin-N5-(4-trifluoromethyl)phenyl Biguanide Hydrochloride] | 6.1 µM | 9.2 Unit/ml | 13.9 Unit/ml | cell death | –
CCOC1CCN(C(=N)NC(=N)N2CCCC(C)C2)CC1 (stereo not shown) [Example 46, N1-(3-methyl)piperidin-N5-(4-ethos)piperidine Biguanide Hydrochloride] | > 100 µM | 3.8 Unit/ml | 3.6 Unit/ml | 5.4 Unit/ml | –
COc1ccc(CNC(=N)NC(=N)N)cc1 [Example 131, N1-(4-methoxy)benzyl Biguanide Hydrochloride] | – | – | – | 17.6 Unit/ml | > 100 µM
CC(C)NC(=N)NC(=N)Nc1ccc(Cl)cc1.Cl [Example 17, N1-isopropyl-N5-(4-chloro)phenyl Biguanide Hydrochloride] | 35.1 µM | 10.2 Unit/ml | 10.8 Unit/ml | 55.7 Unit/ml | –
COC1CCN(C(=N)NC(=N)N2CCCC(C)C2)CC1.Cl (stereo not shown) [Example 45, N1-(3-methyl)piperidin-N5-(4-methoxy)piperidine Biguanide Hydrochloride] | > 100 µM | 3.0 Unit/ml | 4.0 Unit/ml | 3.5 Unit/ml | –
CN1CCN(C(=N)NC(=N)NCc2ccccc2Cl)CC1.Cl [Example 32, N1-(4-methyl)piperazin-N5-(2-chloro)benzyl Biguanide Hydrochloride] | > 100 µM | 5.5 Unit/ml | 5.2 Unit/ml | 5.3 Unit/ml | –
Cl.N=C(NCc1ccccc1Cl)NC(=N)N1CCCCC1 [Example 12, N1-piperidin-N5-(2-chloro)benzyl Biguanide Hydrochloride] | > 100 µM | – | – | 3.1 Unit/ml | –
CCCN(CCC)C(=N)NC(=N)N1CCCCC1.Cl [Example 8, N1,N1-dipropyl-N5-piperidine Biguanide Hydrochloride] | > 100 µM | 10.8 Unit/ml | 12.5 Unit/ml | 19.3 Unit/ml | –
Cl.N=C(NCc1cccc(C(F)(F)F)c1)NC(=N)Nc1cccnc1 [Example 43, N1-3-pyridin-N5-(3-trifluoromethyl)benzyl Biguanide Hydrochloride] | 100 µM | 3.0 Unit/ml | 4.3 Unit/ml | 7.6 Unit/ml | –

More lines, main results first:

IC50 (HCT116 cells; HCT-116, HCT116, MTT, 48 hours) | Structure (SMILES) | AMPKa activation [pT172] (Unit/ml) @ MCF7 cell (AMPKa [pT172]; 5 uM) | AMPKa activation [pT172] (Unit/ml) @ MCF7 cell (AMPKa [pT172]; 10 uM) | AMPKa activation [pT172] (Unit/ml) @ MCF7 cell (AMPKa [pT172]; 50 uM) | IC50 (HCT116 cells; HCT-116, 48 h)
> 100 µM | Cl.N=C(N)NC(=N)N(Cc1ccccc1)Cc1ccccc1 [Example 130, N1,N1-dibenzyl Biguanide Hydrochloride] | – | – | 8.8 Unit/ml | –
48.8 µM | CC1CCN(C(=N)NC(=N)Nc2ccc(F)cc2)CC1.Cl [Example 56, N1-(4-methyl)piperidin-N5-(4-fluoro)phenyl Biguanide Hydrochloride] | 2.7 Unit/ml | 4.8 Unit/ml | 15.4 Unit/ml | –
118 µM | CCCNC(=N)NC(=N)N.Cl [Example 114, N1-propyl Biguanide Hydrochloride] | – | – | 6.1 Unit/ml | –
> 100 µM | Cl.N=C(N)NC(=N)Nc1ccc(C(F)(F)F)cc1 [Example 128, N1-(4-trifluoromethyl)phenyl Biguanide Hydrochloride] | 7.6 Unit/ml | 7.1 Unit/ml | 8.8 Unit/ml | –
48.3 µM | CCCc1ccccc1NC(=N)NC(=N)N1CCCCC1.Cl [Example 74, N1-piperidin-N5-(2-propyl)phenyl Biguanide Hydrochloride] | 4.9 Unit/ml | 5.3 Unit/ml | 8.3 Unit/ml | –
> 100 µM | Cl.N=C(N)NC(=N)N(C1CCCCC1)C1CCCCC1 [Example 136, N1,N1-dicyclohexyl Biguanide Hydrochloride] | – | – | 5.9 Unit/ml | –
3.5 µM | Cl.N=C(N)NC(=N)Nc1ccccc1C(F)(F)F [Example 119, N1-(2-trifluoromethyl)phenyl Biguanide Hydrochloride] | 6.9 Unit/ml | 8.8 Unit/ml | 8.5 Unit/ml | –
7.9 µM | Cl.N=C(NC(=N)N1CCCC1)Nc1ccc(SC(F)(F)F)cc1 [Example 79, N1-pyrrolidin-N5-(4-trifluoromethylthio)phenyl Biguanide Hydrochloride] | 7.8 Unit/ml | 11.7 Unit/ml | cell death | –
147 µM | Cl.N=C(NC(=N)N1CC=CC1)N1CC=CC1 [Example 67, N1-2,5-dihydro-1H-pyrrol-N5-2,5-dihydro-1H-pyrrole Biguanide Hydrochloride] | 3.2 Unit/ml | 2.9 Unit/ml | 4.8 Unit/ml | –
> 100 µM | Cl.N=C(NC(=N)N1CC=CC1)Nc1cccnc1 [Example 66, N1-2,5-dihydro-1H-pyrrol-N5-pyridin-3-yl Biguanide Hydrochloride] | 3.3 Unit/ml | 3.7 Unit/ml | 4.1 Unit/ml | –
2.3 µM | CC1CCN(C(=N)NC(=N)Nc2ccc(Cl)c(C(F)(F)F)c2)CC1.Cl [Example 58, N1-(4-methyl)piperidin-N5-(3-trifluoromethyl-4-chloro)phenyl Biguanide Hydrochloride] | 2.5 Unit/ml | 5.0 Unit/ml | cell death | –
> 100 µM | Cl.N=C(NC1=NC(=O)CCN1)N1CCCCC1 [Example 156, N-(4-oxo-1,4,5,6-tetrahydropyrimidin-2-yl)piperidin-1-carboximidamide Hydrochloride] | 3.6 Unit/ml | 2.6 Unit/ml | 4.9 Unit/ml | –
> 100 µM | Cl.N=C(N)NC(=N)N1CCCC1 [Example 126, N1-pyrrolidine Biguanide Hydrochloride] | 6.1 Unit/ml | 6.4 Unit/ml | 10.7 Unit/ml | –
> 100 µM | Cl.N=C(N)NC(=N)NCCc1ccc(Cl)cc1 [Example 137, N1-(4-chloro)phenethyl Biguanide Hydrochloride] | 4.1 Unit/ml | 7.3 Unit/ml | 11.9 Unit/ml | –
> 100 µM | COc1ccc(NC(=N)NC(=N)N)cc1.Cl [Example 120, N1-(4-methoxy)phenyl Biguanide Hydrochloride] | – | – | 8.1 Unit/ml | –
> 100 µM | CC(C)N(C(=N)NC(=N)N)C(C)C.Cl [Example 115, N1,N1-diisopropyl Biguanide Hydrochloride] | – | – | 4.8 Unit/ml | –
